Measured values as given in patent US10085971B2, “Pharmaceutical solution of asenapine for sublingual or buccal use” (Navinta III Inc, priority 2016, dated 2018).
Structures can show the parent of a compound that is named as a salt.

Experiments:
[1] = oral dosing in human patients; cited from earlier work
[2] = Solubility in ethanol water mixture; assay type: physicochemical; details: both crystal forms

Row | SMILES | Side effects of oral dosing [1] | Solubility [2]
1 | CN1C[C@H]2c3ccccc3Oc3ccc(Cl)cc3[C@@H]2C1 (relative stereo) [Asenapine, trans-5-chloro-2-methyl-2,3,3a, 12b-tetrahydro-1 H-dibenz[2,3:6,7]oxepino-[4,5-c]pyrrole] | serious cardiotoxic side effects including postural hypotension | 
2 | CN1CC2c3ccccc3Oc3ccc(Cl)cc3C2C1 (centres unmarked) [Asenapine maleate] |  | good solubility
